Among the data in US6764833B1, “Mutated Src oncogene composition and methods” (University of South Florida, priority 1999, dated 2004) are IC50 values, retold here.

This assay has as its target T1, pp60c-Src (Homo sapiens, UniProt P12931).
T1 construct: made in house; elsewhere 3Y1 rat fibroblasts are transfected with pcSrc531RI (pcDNA3.1)
Put plainly: Competitive inhibition of enolase phosphorylation by Src kinase. Format: biochemical. To be noted: 1 μM acid treated enolase; read-out: K50% competitive inhibition of enolase phosphorylation. The method, then:
A library of peptides to be tested as antagonists of pp60 c-Src mutant tyrosine kinase are synthesized according to the procedure disclosed in U.S. Pat. No. 5,532,167 to Cantley, which is incorporated herein by way of reference. Accordingly a peptide Ala-Glu-Glu-Glu-Ile-Tyr-Gly-Glu-Phe-Glu-Ala-Lys-Lys-Lys-Lys is synthesized as an optimal substrate/antagonist for mutant Src tyrosine kinase. The kinetic studies are carried out as follows. Purified mutant kinase is immobilized on protein A beads and kinase reaction is performed in 20 μl of 50 mM Tris pH 7.0 buffer containing 50 mM NaCl, 10 mM MgCl2, 10 μM ATP 5 μCi [gamma-^32P]-ATP (3000 mCi/mmol, NEN) and various dilutions of the peptide. For the experiment measuring the competitive inhibition of c-Src activity by the Src motif-containing peptide, 1 μM (final concentration) acid treated enolase (trans-phosphorylation) is included. After 2.5 minutes incubation, the supernatants are spotted on phosphocellulose paper, washed four times with 75 mM phosphoric acid, and radioactivity counted in a scintillation counter. For phosphorylation of enolase, the reaction is stopped by adding SDS loading buffer and the proteins are resolved on 10% SDS-PAGE gels. The Km and Vmax are calculated using a standard computer software. The peptide is a good substrate for pp60c-Src, with Km of 2 μM and Vmax of 0.9 μM/mg/min. […]

The structures appear in SMILES notation.

T1 sequence (P12931 2-530): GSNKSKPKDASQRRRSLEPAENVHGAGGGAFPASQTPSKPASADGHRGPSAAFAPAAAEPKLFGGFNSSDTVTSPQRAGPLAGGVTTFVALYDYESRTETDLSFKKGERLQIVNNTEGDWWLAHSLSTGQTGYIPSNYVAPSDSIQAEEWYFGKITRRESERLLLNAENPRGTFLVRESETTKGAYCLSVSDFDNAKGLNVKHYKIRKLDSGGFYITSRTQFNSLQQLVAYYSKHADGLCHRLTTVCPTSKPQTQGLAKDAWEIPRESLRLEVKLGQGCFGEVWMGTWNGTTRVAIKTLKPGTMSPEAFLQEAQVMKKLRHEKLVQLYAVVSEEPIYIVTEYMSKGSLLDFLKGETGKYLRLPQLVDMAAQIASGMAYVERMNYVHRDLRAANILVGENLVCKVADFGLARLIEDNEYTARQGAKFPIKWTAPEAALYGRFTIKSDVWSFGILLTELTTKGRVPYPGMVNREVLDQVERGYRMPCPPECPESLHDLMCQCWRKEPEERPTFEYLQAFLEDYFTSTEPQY

Regarding `CC[C@H](C)[C@H](NC(=O)[C@H](CCC(=O)O)NC(=O)[C@H](CCC(=O)O)NC(=O)[C@H](CCC(=O)O)NC(=O)[C@H](C)N)C(=O)N[C@@H](Cc1ccc(O)cc1)C(=O)NCC(=O)N[C@@H](CCC(=O)O)C(=O)N[C@@H](Cc1ccccc1)C(=O)N[C@@H](CCC(=O)O)C(=O)N[C@@H](C)C(=O)N[C@@H](CCCCN)C(=O)N[C@@H](CCCCN)C(=O)N[C@@H](CCCCN)C(=O)N[C@@H](CCCCN)C(=O)O` [Ala-Glu-Glu-Glu-Ile-Tyr-Gly-Glu-Phe-Glu-Ala-Lys-Lys-Lys-Lys], the IC50 was determined as 5 µM.
